# Data reported in PMC10189894 (Chemical Science, 2023).
# Assay: Autohydrolytic cascade reaction
# Format: physicochemical
# Settings: EDTA at 10–200 μM; Fig. S9E
structure (smiles),measurement,value
O=C(O)CN(CCN(CC(=O)O)CC(=O)O)CC(=O)O [EDTA],effect on the ACR,inhibitory effect
